This note sets out measurements from ChEMBL document CHEMBL6109093, “Designing novel nucleoside inhibitors targeting the allosteric site of PBP2a: A strategic approach to overcome resistance in MRSA” (Bioorg Med Chem, 2025).

Data set [1] deals with Staphylococcus aureus. In words: Antibacterial activity against methicillin-resistant Staphylococcus aureus Mu 50 measured after 24 hrs by turbidimetric assay. The class given is functional.
In data set [2] the target is T1, MecA (Staphylococcus aureus) (UniProt Q7DHH4).
T1 sequence (whole entry): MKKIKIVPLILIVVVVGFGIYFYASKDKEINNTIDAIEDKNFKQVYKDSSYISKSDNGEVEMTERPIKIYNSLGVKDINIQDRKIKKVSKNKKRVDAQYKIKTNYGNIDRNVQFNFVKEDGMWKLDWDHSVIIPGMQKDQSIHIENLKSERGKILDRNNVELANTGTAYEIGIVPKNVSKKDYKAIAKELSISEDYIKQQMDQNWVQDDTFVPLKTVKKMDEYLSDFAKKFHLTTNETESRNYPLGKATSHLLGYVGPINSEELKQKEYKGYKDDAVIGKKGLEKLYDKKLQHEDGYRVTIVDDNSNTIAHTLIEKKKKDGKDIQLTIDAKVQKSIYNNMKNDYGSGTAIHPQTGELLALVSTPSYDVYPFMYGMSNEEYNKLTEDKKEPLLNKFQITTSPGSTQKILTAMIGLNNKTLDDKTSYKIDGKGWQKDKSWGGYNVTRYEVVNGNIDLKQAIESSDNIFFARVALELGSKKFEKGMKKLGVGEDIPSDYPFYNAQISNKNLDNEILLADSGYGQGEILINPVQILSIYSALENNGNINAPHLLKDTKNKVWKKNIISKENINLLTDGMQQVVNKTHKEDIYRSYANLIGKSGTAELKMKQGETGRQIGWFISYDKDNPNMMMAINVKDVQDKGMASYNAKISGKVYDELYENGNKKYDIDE
The data set can be described thus: Inhibition of PBP2a in methicillin-resistant Staphylococcus aureus Mu 50 assessed as disruption of bacterial cell wall integrity by measuring release of intracellular contents at 64 ug/ml measured after 12 hrs by transmission electron microscopy. The conditions noted are these: dose 64.0 µg/ml. Format: cell-based.

The test system of the next data set is Escherichia coli. The data set can be described thus: Antibacterial activity against Escherichia coli ATCC 25922 measured after 24 hrs by turbidimetric assay. Format: functional.
Data set [3] relates to Staphylococcus aureus. In words: Antibacterial activity against methicillin-sensitive Staphylococcus aureus ATCC 29213 measured after 24 hrs by turbidimetric assay. The class given is functional.
Data set [4] can be described thus: Cytotoxicity against human intestinal epithelial cells assessed as reduction in cell viability at 64 ug/ml measured after 24 hrs by CCK-8 assay. The conditions noted are these: dose 64 µg/ml. The class given is toxicity, cell-based. On the technique in general: Tetrazolium dyes change colour on reduction, which living cells bring about.
For data set [5], the target named is T1, MecA (Staphylococcus aureus). The data set can be described thus: Inhibition of PBP2a in methicillin-resistant Staphylococcus aureus Mu 50 assessed as abnormal cell division at 16 ug/ml measured after 12 hrs by transmission electron microscopy. The note with it: dose 16.0 µg/ml.
For data set [6], the system named is Staphylococcus aureus. In words: Antibacterial activity against methicillin-resistant Staphylococcus aureus Mu 50 at 4 to 32 ug/ml measured at 1 hr interval for 24 hrs. Format: functional, organism-based. The note with it: dose 4-32 µg/ml.
The target in data set [7] is T1, MecA (Staphylococcus aureus). The data set can be described thus: Inhibition of PBP2a in methicillin-resistant Staphylococcus aureus Mu 50 assessed as blurred cell wall boundaries at 16 ug/ml measured after 12 hrs by transmission electron microscopy. The note with it: dose 16.0 µg/ml.
The subject of data set [8] is Staphylococcus aureus. In words: Bactericidal activity against methicillin-resistant Staphylococcus aureus Mu 50 assessed as reduction in colony formation measured after 2 to 24 hrs by time-kill assay. The note with it: dose 8-32 µg/ml, time 2-24 hrs. The class given is functional, organism-based.
For data set [9], the system named is Staphylococcus aureus. The data set can be described thus: Antibacterial activity against methicillin-sensitive Staphylococcus aureus ATCC 29213 at 4 to 32 ug/ml measured at 1 hr interval for 24 hrs. The class given is functional, organism-based. The conditions noted are these: dose 4-32 µg/ml.
Data set [10] has as its system Staphylococcus aureus. In words: Bactericidal activity against methicillin-resistant Staphylococcus aureus Mu 50 assessed as reduction in colony formation at 8 to 32 ug/ml measured after 3 hrs by time-kill assay. Format: functional, organism-based. The note with it: dose 8-32 µg/ml.
Data set [11] can be described thus: Cytotoxicity against mouse BEND3 cells assessed as reduction in cell viability at 64 ug/ml measured after 24 hrs by CCK-8 assay. The class given is toxicity, cell-based. The conditions noted are these: bend3, 24 h, dose 64 µg/ml.
In data set [12] the test system is Staphylococcus aureus. In words: Synergistic antibacterial activity against methicillin-resistant Staphylococcus aureus Mu 50 at 16 to 32 ug/ml measured at 1 hr interval for 24 hrs in presence of oxacillin. Format: functional, organism-based. The conditions noted are these: dose 16-32 µg/ml.
The subject of data set [13] is Staphylococcus aureus. In words: Resistance development in methicillin-resistant Staphylococcus aureus Mu 50 assessed as MIC after 9 passages by broth dilution method. The class given is functional. (In general: Broth dilution looks for growth in wells or tubes with falling amounts of substance.)
The test system of data set [14] is Staphylococcus aureus. In words: Synergistic antibacterial activity against methicillin-resistant Staphylococcus aureus Mu 50 at 64 to 128 ug/ml measured at 1 hr interval for 24 hrs in presence of oxacillin. Format: functional, organism-based. The conditions noted are these: dose 64-128 µg/ml.
Data set [15] concerns Staphylococcus aureus. In words: Resistance development in methicillin-resistant Staphylococcus aureus Mu 50 assessed as fold change in MIC after and before 6 passages by broth dilution method. The class given is functional.

≈ marks a conversion by molar mass, not a printed value. Calls of active or inactive are those of the source. Some results are limits rather than exact numbers.

The term MIC denotes the smallest concentration in the dilution series that meets the test's criterion for growth inhibition. Turning to `Cc1onc(-c2ccccc2)c1C(=O)N[C@@H]1C(=O)N2[C@@H]1SC(C)(C)[C@@H]2C(=O)O` [OXACILLIN], the MIC against Staphylococcus aureus [1] is 64 µg/mL (≈ 159 µM). Besides, in [2], the inhibition result was “Active”.
With `Nc1ncnc2c1c(C#Cc1ccc3ccccc3c1)cn2[C@@H]1O[C@H](CSCc2cccc(C(=O)O)c2)[C@@H](O)[C@H]1O`, the results for the MIC with Escherichia coli, with Staphylococcus aureus [1] and with Staphylococcus aureus [3] were greater than 128 µg/mL, 32 µg/mL (≈ 56.5 µM) and greater than 128 µg/mL, respectively.
Take `Nc1ncnc2c1ncn2[C@@H]1O[C@H](CSCc2cccc(C(=O)O)c2)[C@@H](O)[C@H]1O`: the MIC against Escherichia coli, in the data set on Staphylococcus aureus [1] and in the data set with Staphylococcus aureus [3] was greater than 128 µg/mL each time.
For the compound `Nc1ncnc2c1c(C#Cc1ccccc1)cn2[C@@H]1O[C@H](CSCc2cccc(C(=O)O)c2)[C@@H](O)[C@H]1O`, the MIC in the data set with Escherichia coli, in the data set with Staphylococcus aureus [1] and in the data set on Staphylococcus aureus [3] was greater than 128 µg/mL in each case.
For `Nc1ncnc2c1ncn2[C@@H]1O[C@H](CSCc2cncc(C(=O)O)n2)[C@@H](O)[C@H]1O`, the MIC against Escherichia coli, against Staphylococcus aureus [1] and in the data set with Staphylococcus aureus [3] was greater than 128 µg/mL in each case.
For the compound `Nc1ncnc2c1ncn2[C@@H]1O[C@H](CSCc2cccc(C(=O)O)n2)[C@@H](O)[C@H]1O`, the MIC in the data set with Escherichia coli, with Staphylococcus aureus [1] and in the data set with Staphylococcus aureus [3] was greater than 128 µg/mL in each case.
Regarding `Nc1ncnc2c1c(C#Cc1cccc(F)c1)cn2[C@@H]1O[C@H](CSCc2cccc(C(=O)O)c2)[C@@H](O)[C@H]1O`, the MIC against Escherichia coli, with Staphylococcus aureus [1] and in the data set on Staphylococcus aureus [3] was greater than 128 µg/mL throughout.
In the case of `Nc1ncnc2c1c(C#Cc1ccc3sccc3c1)cn2[C@@H]1O[C@H](CSCc2cccc(C(=O)O)c2)[C@@H](O)[C@H]1O`, the Activity result in data set [4] is “Non-toxic”; in the data set with Staphylococcus aureus [6], “Active; Significant Inhibition Observed”; in the data set on Staphylococcus aureus [8] it was “Dose-dependent-effect”; in the data set with Staphylococcus aureus [10] it was “Active; Significant Reduction Observed”; in data set [11], “Non-toxic”; with Staphylococcus aureus [12], “Active; Enhanced The Inhibitory Effect Of Oxacillin”. The Activity result in the data set on Staphylococcus aureus [14] is “Not active; Decreased The Activity Of Oxacillin”. Further, the inhibition entry in data set [5] and in data set [7] was “Active; Significantly Inhibits The Cross-Linking Of Peptidoglycan Substrates By Pbp2A” each time. Besides, the MIC against Escherichia coli is greater than 128 µg/mL; with Staphylococcus aureus [1], 16 µg/mL (≈ 27.9 µM); with Staphylococcus aureus [3] it was greater than 128 µg/mL; in the data set with Staphylococcus aureus [13] it was 64 µg/mL (≈ 112 µM). In addition, in the data set on Staphylococcus aureus [9], the result was inactive.
For the compound `Nc1ncnc2c1ncn2[C@@H]1O[C@H](CSCc2cc(C(=O)O)no2)[C@@H](O)[C@H]1O`, the MIC in the data set with Escherichia coli, against Staphylococcus aureus [1] and against Staphylococcus aureus [3] was greater than 128 µg/mL each time.
As to `N#Cc1cccc(CSC[C@H]2O[C@@H](n3cnc4c(N)ncnc43)[C@H](O)[C@@H]2O)c1`, the minimal inhibitory concentration (MIC) against Escherichia coli, against Staphylococcus aureus [1] and in the data set with Staphylococcus aureus [3] was greater than 128 µg/mL in each case.
For the compound `Nc1ncnc2c1c(C#Cc1cccnc1)cn2[C@@H]1O[C@H](CSCc2cccc(C(=O)O)c2)[C@@H](O)[C@H]1O`, the MIC against Escherichia coli, against Staphylococcus aureus [1] and with Staphylococcus aureus [3] was greater than 128 µg/mL in each case.
Regarding `Nc1ncnc2c1c(C#Cc1cccc([N+](=O)[O-])c1)cn2[C@@H]1O[C@H](CSCc2cccc(C(=O)O)c2)[C@@H](O)[C@H]1O`, the MIC in the data set on Escherichia coli, against Staphylococcus aureus [1] and in the data set on Staphylococcus aureus [3] was greater than 128 µg/mL each time.
Take `CCO/N=C(\C(=O)N[C@@H]1C(=O)N2C(C(=O)[O-])=C(Sc3nc(-c4cc[n+](C)cc4)cs3)CS[C@H]12)c1nsc(NP(=O)(O)O)n1` [CEFTAROLINE FOSAMIL]: the “fold change (FC)” value with Staphylococcus aureus [15] came out at 2. In addition, the minimum inhibitory concentration (MIC) with Staphylococcus aureus [1] was 32 µg/mL (≈ 46.7 µM); with Staphylococcus aureus [13], 128 µg/mL (≈ 187 µM).
